Results on one compound are retold here after ChEMBL document CHEMBL5537119 (Eur J Med Chem, 2024).

Bounds are passed on as bounds.

One assay has as its target Histone deacetylase 4 (Homo sapiens, UniProt P56524). In words: Inhibition of human recombinant TEV-8His-tagged HDAC4 (648 to 1057 residues) expressed in Escherichia coli (DE3) Rosetta cells using Boc-Lys-(Tfa)-AMC as substrate preincubated for 5 mins followed by substrate addition and measured after 90 mins by fluorescence based microplate reader analysis.
The next assay deals with T1, Histone deacetylase 8 (Homo sapiens, UniProt Q9BY41).
T1 sequence (Q9BY41 whole entry): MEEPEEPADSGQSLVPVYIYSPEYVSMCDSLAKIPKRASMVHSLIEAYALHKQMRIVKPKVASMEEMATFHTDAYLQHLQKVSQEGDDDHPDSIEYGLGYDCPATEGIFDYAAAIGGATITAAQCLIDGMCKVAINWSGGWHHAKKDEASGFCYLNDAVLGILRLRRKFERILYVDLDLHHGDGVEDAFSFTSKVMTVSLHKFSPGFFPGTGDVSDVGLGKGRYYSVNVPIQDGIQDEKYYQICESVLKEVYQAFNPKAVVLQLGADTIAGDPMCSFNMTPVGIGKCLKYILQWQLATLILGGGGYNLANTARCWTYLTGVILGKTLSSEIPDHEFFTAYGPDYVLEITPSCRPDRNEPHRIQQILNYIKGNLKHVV
In words: Inhibition of human recombinant HDAC8 using Boc-Lys-(Tfa)-AMC as substrate preincubated for 5 mins followed by substrate addition and measured after 90 mins by fluorescence based microplate reader analysis.

Assay [1] can be described thus: Inhibition of Class I/IIb HDAC in human THP-1 cells preincubated for 18 hrs followed by substrate addition and measured after 3 hrs by fluorescence based microplate reader assay. The format is cell-based.
Assay [2] is described as follows: Inhibition of Class IIa/8 HDAC in human THP-1 cells preincubated for 18 hrs followed by substrate addition and measured after 3 hrs by fluorescence based microplate reader assay. The class given is cell-based.
Another assay deals with Histone deacetylase 5 (Homo sapiens, UniProt Q9UQL6). In words: Inhibition of HDAC5 (unknown origin).
Histone deacetylase 5, sequence (Q9UQL6 whole entry): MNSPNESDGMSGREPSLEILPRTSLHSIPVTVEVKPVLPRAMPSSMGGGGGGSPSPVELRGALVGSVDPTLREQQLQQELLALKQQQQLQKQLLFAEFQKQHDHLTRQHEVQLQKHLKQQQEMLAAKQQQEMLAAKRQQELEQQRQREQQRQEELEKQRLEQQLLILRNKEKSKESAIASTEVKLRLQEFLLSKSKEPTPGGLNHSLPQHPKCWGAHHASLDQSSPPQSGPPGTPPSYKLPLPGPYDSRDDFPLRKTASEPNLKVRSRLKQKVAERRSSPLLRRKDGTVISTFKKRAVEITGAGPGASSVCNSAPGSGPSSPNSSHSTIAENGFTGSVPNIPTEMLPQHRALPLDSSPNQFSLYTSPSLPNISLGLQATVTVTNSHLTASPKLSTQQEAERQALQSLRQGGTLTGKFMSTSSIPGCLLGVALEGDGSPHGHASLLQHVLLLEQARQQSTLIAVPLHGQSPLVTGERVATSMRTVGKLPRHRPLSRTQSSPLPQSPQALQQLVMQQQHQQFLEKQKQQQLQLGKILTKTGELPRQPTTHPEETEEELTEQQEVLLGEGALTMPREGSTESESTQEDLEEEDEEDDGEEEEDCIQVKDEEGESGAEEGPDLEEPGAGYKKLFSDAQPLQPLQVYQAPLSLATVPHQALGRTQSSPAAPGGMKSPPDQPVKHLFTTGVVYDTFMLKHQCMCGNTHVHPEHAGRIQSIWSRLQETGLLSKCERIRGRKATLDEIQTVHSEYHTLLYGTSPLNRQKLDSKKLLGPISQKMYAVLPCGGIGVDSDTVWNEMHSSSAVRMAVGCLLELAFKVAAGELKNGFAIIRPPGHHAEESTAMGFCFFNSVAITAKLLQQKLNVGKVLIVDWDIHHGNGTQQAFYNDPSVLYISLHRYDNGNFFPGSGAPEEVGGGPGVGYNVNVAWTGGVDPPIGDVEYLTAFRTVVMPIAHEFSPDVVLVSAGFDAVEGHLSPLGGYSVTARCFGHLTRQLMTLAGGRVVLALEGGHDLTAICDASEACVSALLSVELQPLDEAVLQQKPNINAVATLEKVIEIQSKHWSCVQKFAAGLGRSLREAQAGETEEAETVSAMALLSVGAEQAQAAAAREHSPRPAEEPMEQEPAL
For the next assay, the target named is T2, Histone deacetylase 11 (Homo sapiens, UniProt Q96DB2).
T2 sequence (Q96DB2 whole entry): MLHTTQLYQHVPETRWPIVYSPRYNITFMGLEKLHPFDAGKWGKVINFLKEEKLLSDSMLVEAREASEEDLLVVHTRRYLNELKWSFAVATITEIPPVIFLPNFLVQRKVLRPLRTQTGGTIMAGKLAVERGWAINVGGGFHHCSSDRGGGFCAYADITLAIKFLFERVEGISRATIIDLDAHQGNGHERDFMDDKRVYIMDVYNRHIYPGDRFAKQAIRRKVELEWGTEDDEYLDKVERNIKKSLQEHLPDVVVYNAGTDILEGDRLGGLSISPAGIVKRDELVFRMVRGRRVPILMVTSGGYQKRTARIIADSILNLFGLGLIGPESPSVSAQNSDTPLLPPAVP
The assay can be described thus: Inhibition of HDAC11 (unknown origin).

Histone deacetylase 4, sequence (P56524 whole entry, the tested form may be a part): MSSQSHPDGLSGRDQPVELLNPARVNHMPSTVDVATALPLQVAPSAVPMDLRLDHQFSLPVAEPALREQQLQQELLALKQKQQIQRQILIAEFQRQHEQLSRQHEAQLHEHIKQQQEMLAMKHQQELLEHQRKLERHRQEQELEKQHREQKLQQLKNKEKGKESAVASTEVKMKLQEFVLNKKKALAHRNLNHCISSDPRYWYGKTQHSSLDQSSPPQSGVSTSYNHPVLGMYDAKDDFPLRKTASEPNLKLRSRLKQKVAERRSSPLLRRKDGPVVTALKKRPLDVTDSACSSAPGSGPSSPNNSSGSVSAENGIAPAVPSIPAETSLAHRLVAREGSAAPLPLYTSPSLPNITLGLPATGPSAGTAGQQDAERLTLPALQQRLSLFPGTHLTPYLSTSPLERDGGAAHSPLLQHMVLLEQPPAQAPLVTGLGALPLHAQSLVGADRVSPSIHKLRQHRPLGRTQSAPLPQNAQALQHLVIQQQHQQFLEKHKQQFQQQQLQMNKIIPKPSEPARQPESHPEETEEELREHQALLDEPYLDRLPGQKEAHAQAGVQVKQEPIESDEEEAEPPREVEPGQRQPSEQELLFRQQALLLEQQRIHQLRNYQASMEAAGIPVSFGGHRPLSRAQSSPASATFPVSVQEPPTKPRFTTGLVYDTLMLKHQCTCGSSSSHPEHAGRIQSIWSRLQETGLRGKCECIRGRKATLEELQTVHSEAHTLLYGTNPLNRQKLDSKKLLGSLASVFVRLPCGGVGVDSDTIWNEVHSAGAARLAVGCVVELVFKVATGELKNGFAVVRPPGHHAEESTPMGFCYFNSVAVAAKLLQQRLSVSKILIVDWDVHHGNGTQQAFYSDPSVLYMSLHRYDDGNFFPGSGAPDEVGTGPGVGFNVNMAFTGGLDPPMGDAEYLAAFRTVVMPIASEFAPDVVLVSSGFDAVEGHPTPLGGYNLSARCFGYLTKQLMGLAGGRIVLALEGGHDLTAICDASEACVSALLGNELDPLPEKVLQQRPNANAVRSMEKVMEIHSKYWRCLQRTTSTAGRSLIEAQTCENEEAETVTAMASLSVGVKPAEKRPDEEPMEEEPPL

With `O=C(NOCc1coc(-c2ccccc2)n1)c1ccc(-c2noc(C(F)(F)F)n2)cc1`, the IC50 – broadly, the concentration at which inhibition is half-maximal – on Histone deacetylase 4 is 0.118 µM; at Histone deacetylase 8, greater than 100 µM; in assay [1], greater than 100 µM; in assay [2] it was 38.1 µM; on Histone deacetylase 5, 1.09 µM; at Histone deacetylase 11 it was greater than 100 µM.
